# Results: patent US9255100B2 (BAYER INTELLECTUAL PROPERTY GMBH, priority 2010, dated 2016)
# Biological target: T1, N-terminally GST-tagged human full length recombinant Mps-1 kinase (Homo sapiens, UniProt P33981)
# T1 construct: N-terminally GST-tagged human full length recombinant Mps-1 kinase; purchased Invitrogen, Karslruhe, Germany PV4071
# T1 sequence (P33981 1-857): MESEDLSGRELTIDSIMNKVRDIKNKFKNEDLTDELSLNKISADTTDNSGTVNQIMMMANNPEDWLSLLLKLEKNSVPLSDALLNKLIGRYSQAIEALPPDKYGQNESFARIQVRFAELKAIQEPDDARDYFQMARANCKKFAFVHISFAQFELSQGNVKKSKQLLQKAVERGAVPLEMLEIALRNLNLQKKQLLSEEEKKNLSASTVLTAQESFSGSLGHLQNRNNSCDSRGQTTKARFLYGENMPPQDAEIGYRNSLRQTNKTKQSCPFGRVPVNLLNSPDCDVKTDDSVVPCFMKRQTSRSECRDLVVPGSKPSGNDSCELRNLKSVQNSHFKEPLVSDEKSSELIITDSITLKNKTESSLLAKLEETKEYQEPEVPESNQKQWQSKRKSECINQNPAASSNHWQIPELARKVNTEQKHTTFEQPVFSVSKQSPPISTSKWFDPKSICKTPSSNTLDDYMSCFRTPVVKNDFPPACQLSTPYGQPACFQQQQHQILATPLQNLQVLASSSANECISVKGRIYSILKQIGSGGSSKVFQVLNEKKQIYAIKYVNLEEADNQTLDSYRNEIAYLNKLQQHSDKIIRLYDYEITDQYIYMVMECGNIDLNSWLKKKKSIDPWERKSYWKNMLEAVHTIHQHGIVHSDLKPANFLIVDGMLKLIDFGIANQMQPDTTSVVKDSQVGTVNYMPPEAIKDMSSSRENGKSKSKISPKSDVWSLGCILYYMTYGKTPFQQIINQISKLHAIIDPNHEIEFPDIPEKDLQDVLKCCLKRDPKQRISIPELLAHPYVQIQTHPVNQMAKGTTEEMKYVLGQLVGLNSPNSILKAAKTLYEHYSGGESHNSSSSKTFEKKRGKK
# Assay: Mps-1 kinase assay (TR-FRET)
# Format: biochemical
# Details: Mps1 IC50 [nM], 10 μM ATP, 1 μM peptide substrate, 60 min at 22° C.
# Method in brief: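 Compounds were tested against recombinant full-length Mps-1 bearing an N-terminal GST tag, about 1 nM final, with a biotinylated amide-capped peptide as substrate. Detection reagents were then bound for 1 h at 22° C and the product read by TR-FRET.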
row,Structure (SMILES),IC50 [nM]
1,"Cc1ccc(F)c(Oc2cc(NCC(C)(C)O)c3ncc(-c4ccc(C(=O)NC5CC5)c(C)c4)n3n2)c1 [Example 81, N-cyclopropyl-4-{6-(2-fluoro-5-methylphenoxy)-8-[(2-hydroxy-2-methylpropyl)amino]imidazo[1,2-b]pyridazin-3-yl}-2-methylbenzamide]",0.2
2,"Cc1cc(-c2cnc3c(NCCN4CCOCC4)cc(Oc4cncc(F)c4)nn23)ccc1C(=O)NC1CC1 [Example 541, N-cyclopropyl-4-(6-[(5-fluoro-pyridin-3-yl)oxy]-8-{[2-(morpholin-4-yl)ethyl]amino}imidazo[1,2-b]pyridazin-3-yl)-2-methylbenzamide]",0.4
3,"COc1cc(C(=O)NC2CC2)ccc1-c1cnc2c(NCCC(F)(F)F)cc(-c3ccnn3C)nn12 [Example 53, N-cyclopropyl-3-methoxy-4-{6-(1-methyl-1H-pyrazol-5-yl)-8-[(3,3,3-trifluoropropyl)amino]imidazo[1,2-b]pyridazin-3-yl}benzamide]",7.1
4,"Cc1cc(-c2cnc3c(NCCC(F)(F)F)cc(Oc4cccc5ccc(=O)[nH]c45)nn23)ccc1C(=O)NC1CC1 [Example 468, N-cyclopropyl-2-methyl-4-{6-[(2-oxo-1,2-dihydro-quinolin-8-yl)oxy]-8-[(3,3,3-trifluoropropyl)amino]imidazo[1,2-b]pyridazin-3-yl} benzamide]",7.5
5,"CCNC(=O)c1ccc(-c2cnc3c(NCC4CCOCC4)cc(Oc4ccc(F)c(F)c4)nn23)cc1C [Example 594, 4-{6-(3,4-difluorophenoxy)-8-[(tetrahydro-2H-pyran-4-ylmethyl)amino]imidazo[1,2-b]pyridazin-3-yl}-N-ethyl-2-methylbenzamide]",< 10
6,"Cc1cc(F)cc(Oc2cc(NCC(C)(C)O)c3ncc(-c4ccc(C(=O)NC5CC5)c(C)c4)n3n2)c1 [Example 87, N-cyclopropyl-4-{6-(3-fluoro-5-methylphenoxy)-8-[(2-hydroxy-2-methylpropyl)amino]imidazo[1,2-b]pyridazin-3-yl}-2-methylbenzamide]",0.2
7,"Cc1cc(-c2cnc3c(NCCCN4CCCC4)cc(Oc4cccc(F)c4)nn23)ccc1C(=O)NC1CC1 [Example 507, N-cyclopropyl-4-[6-(3-fluoro-phenoxy)-8-{[3-(pyrrolidin-1-yl)propyl]amino}imidazo[1,2-b]pyridazin-3-yl]-2-methyl-benzamide]",0.2
8,"Cc1cc(-c2cnc3c(NCC4CCSCC4)cc(Oc4ccc(Cl)c(F)c4)nn23)ccc1C(=O)NC1CC1 [Example 291, 4-{6-(4-chloro-3-fluorophenoxy)-8-[(tetrahydro-2H-thiopyran-4-ylmethyl)amino]imidazo[1,2-b]pyridazin-3-yl}-N-cyclopropyl-2-methylbenzamide]",0.6
9,"Cc1cc(-c2cnc3c(NCCC(F)(F)F)cc(Nc4ccccc4)nn23)ccc1C(=O)NC1CC1 [Example 368, 4-{6-anilino-8-[(3,3,3-trifluoropropyl)amino]imidazo[1,2-b]pyridazin-3-yl}-N-cyclopropyl-2-methylbenzamide]",0.1
10,"Cc1cc(-c2cnc3c(NCCC(C)CO)cc(-c4ccccc4CO)nn23)ccc1C(=O)NC1CC1 (racemic) [Example 343, (RS)-N-cyclopropyl-4-{8-[(4-hydroxy-3-methylbutyl)amino]-6-[2-(hydroxymethyl)phenyl]imidazo [1,2-b]pyridazin-3-yl}-2-methyl-benzamide]",4.3
11,"CNc1cc(Oc2ccc(OC)c(F)c2)nn2c(-c3ccc(C(=O)NC4CC4)c(C)c3)cnc12 [Example 535, N-cyclopropyl-4-[6-(3-fluoro-4-methoxy-phenoxy)-8-(methyl-amino)imidazo[1,2-b]pyridazin-3-yl]-2-methylbenzamide]",0.1
12,"Cc1cc(-c2cnc3c(NCCN4CCCCC4)cc(Oc4cccc(F)c4)nn23)ccc1C(=O)NC1CC1 [Example 499, N-cyclopropyl-4-[6-(3-fluoro-phenoxy)-8-{[2-(piperidin-1-yl)ethyl]amino}imidazo[1,2-b]pyridazin-3-yl]-2-methyl-benzamide]",0.2
13,"COc1cc(Nc2cc(NCC(C)(C)O)c3ncc(-c4ccc(C(=O)NC5CC5)c(C)c4)n3n2)ccc1F [Example 400, N-cyclopropyl-4-{6-[(4-fluoro-3-methoxyphenyl)amino]-8-[(2-hydroxy-2-methylpropyl)amino]imidazo[1,2-b]pyridazin-3-yl}-2-methylbenzamide]",3.1
14,"CC(C)CNc1cc(-c2cnc3ccccc3c2)nn2c(-c3ccc(C(=O)NC4CC4)cc3)cnc12 [Example 108, N-cyclopropyl-4-{8-[(2-methylpropyl)amino]-6-(quinolin-3-yl)imidazo[1,2-b]pyridazin-3-yl} benzamide]",7
15,"Fc1ccc(-c2cc(NCCC(F)(F)F)c3ncc(-c4ccc(-c5cnc(C6CC6)[nH]5)cc4)n3n2)cc1 [Example 6, 3-[4-(2-Cyclopropyl-1H-imidazol-5-yl)phenyl]-6-(4-fluorophenyl)-N-(3,3,3-trifluoropropyl)imidazo[1,2-b]pyridazin-8-amine]",43.6
16,"Cc1cc(-c2cnc3c(NCCC(F)(F)F)cc(Sc4cccc(O)c4)nn23)ccc1C(=O)NC1CC1 [Example 238, N-cyclopropyl-4-{6-[(3-hydroxyphenyl)sulfanyl]-8-[(3,3,3-trifluoropropyl)amino]imidazo[1,2-b]pyridazin-3-yl}-2-methylbenzamide]",< 0.1
17,"CNC(=O)c1ccc(-c2cnc3c(NCCC(F)(F)F)cc(Oc4ccc(Cl)cc4)nn23)cc1C [Example 558, 4-{6-(4-chlorophenoxy)-8-[(3,3,3-trifluoropropyl)amino]imidazo[1,2-b]pyridazin-3-yl}-N, 2-dimethylbenzamide]",0.3
18,"CNC(=O)c1ccc(-c2cnc3c(NCCC(F)(F)F)cc(Oc4ccc(O)cc4F)nn23)cc1C [Example 560, 4-{6-(2-fluoro-4-hydroxyphenoxy)-8-[(3,3,3-trifluoropropyl)amino]imidazo[1,2-b]pyridazin-3-yl}-N,2-dimethylbenzamide]",0.1
19,"Cc1cc(-c2cnc3c(NCC(C)(C)O)cc(Sc4ccccc4O)nn23)ccc1C(=O)NC1CC1 [Example 73A, N-cyclopropyl-4-{8-[(2-hydroxy-2-methylpropyl)amino]-6-[(2-hydroxyphenyl)sulfanyl]imidazo[1,2-b]pyridazin-3-yl}-2-methylbenzamide]",< 0.7
20,"Cc1ccc(F)cc1Sc1cc(NCC(C)(C)O)c2ncc(-c3ccc(C(=O)NC4CC4)c(C)c3)n2n1 [Example 64, N-cyclopropyl-4-{6-[(5-fluoro-2-methylphenyl)sulfanyl]-8-[(2-hydroxy-2-methylpropyl)amino]imidazo[1,2-b]pyridazin-3-yl}-2-methylbenzamide]",0.1
21,"Cn1nccc1-c1cc(NC[C@H](O)[C@H]2COC(C)(C)O2)c2ncc(-c3ccc(C(=O)NC4CC4)cc3)n2n1 [Example 192, N-cyclopropyl-4-[8-({(2S)-2-[(4R)-2,2-dimethyl-1,3-dioxolan-4-yl]-2-hydroxyethyl}amino)-6-(1-methyl-1H-pyrazol-5-yl)imidazo[1,2-b]pyridazin-3-yl]benzamide]",21.5
22,"Cc1cc(-c2cnc3c(NCC(C)(C)O)cc(SC4CCOCC4)nn23)ccc1C(=O)NC1CC1 [Example 335, N-cyclopropyl-4-{8-[(2-hydroxy-2-methylpropyl)amino]-6-(tetrahydro-2H-pyran-4-ylsulfanyl)imidazo[1,2-b]pyridazin-3-yl}-2-methylbenzamide]",3.6
